Results from patent publication US20090131468A1, “Bis-(Sulfonylamino) Derivatives in Therapy 065” (AstraZeneca AB, priority 2007, published 2009).

These compounds were tested against T1, human mPGES-1 (Homo sapiens, UniProt O14684) (assay: Microsomal prostaglandin E synthase biochemical assay). Conditions: microsome preparation containing human mPGES-1; PGH2 10.8 μM, GSH 2.5 mM, pH 6.8; PGE2 quantified by HTRF; average of at least n=2.
T1 sequence (O14684 1-152): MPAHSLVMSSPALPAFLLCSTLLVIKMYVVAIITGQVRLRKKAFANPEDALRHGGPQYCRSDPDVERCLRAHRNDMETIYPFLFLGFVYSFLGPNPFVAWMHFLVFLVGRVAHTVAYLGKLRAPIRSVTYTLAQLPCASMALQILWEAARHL
Procedure, shortened: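 Human mPGES-1 microsomes (from IL-1β-stimulated A549 cells or Sf9 cells expressing human mPGES-1) were pre-incubated 15 min with compound in potassium phosphate buffer pH 6.8 with GSH. PGH2 was then added, and the reaction was stopped after one minute with acidic ferric chloride/citrate. PGE2 was read by HTRF, and IC50 was taken from control-normalised activity.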

Row | Structure (SMILES) | IC50 [nM]
1 | COc1cc(-c2cc3ccccc3o2)ccc1C(=O)NS(=O)(=O)c1ccccc1S(N)(=O)=O [Example 48, 4-(Benzofuran-2-yl)-2-methoxy-N-(2-sulfamoylphenylsulfonyl)benzamide] | 150
2 | CC(C)(O)C#Cc1cccc(-c2ccccc2C(=O)NS(=O)(=O)c2ccccc2S(N)(=O)=O)c1 [Example 64, 3′-(3-Hydroxy-3-methylbut-1-ynyl)-N-(2-sulfamoylphenylsulfonyl)biphenyl-2-carboxamide] | 6200
3 | COc1cc(C(=O)NS(=O)(=O)c2ccccc2S(N)(=O)=O)cc(OC)c1-c1cc2ccccc2o1 [Example 47, 4-(Benzofuran-2-yl)-3,5-dimethoxy-N-(2-sulfamoylphenylsulfonyl)benzamide] | 140
4 | NS(=O)(=O)c1ccccc1S(=O)(=O)NC(=O)c1ccc(Br)cc1O [Example 82, 4-Bromo-2-hydroxy-N-(2-sulfamoylphenylsulfonyl)benzamide] | 540
5 | COC(C)(C)C#Cc1ccc(C(=O)NS(=O)(=O)c2ccccc2S(N)(=O)=O)cc1O [Example 115, 3-Hydroxy-4-(3-methoxy-3-methylbut-1-ynyl)-N-(2-sulfamoylphenylsulfonyl)-benzamide] | 4300
6 | CC(C)(O)C#Cc1ccc(C(=O)NS(=O)(=O)c2ccccc2S(N)(=O)=O)cc1 [Example 44, 4-(3-Hydroxy-3-methylbut-1-ynyl)-N-(2-sulfamoylphenylsulfonyl)benzamide] | 240
7 | NS(=O)(=O)c1ccccc1S(=O)(=O)NC(=O)c1ccc(-c2cc3ccccc3o2)cc1C(F)(F)F [Example 150, 4-(Benzofuran-2-yl)-N-(2-sulfamoylphenylsulfonyl)-2-(trifluoromethyl)benzamide] | 360
8 | NS(=O)(=O)c1ccccc1S(=O)(=O)NC(=O)c1ccc(COCCC(F)(F)F)cc1 [Example 97, N-(2-Sulfamoylphenylsulfonyl)-4-((3,3,3-trifluoropropoxy)methyl)benzamide] | 5100
9 | Cc1cc(Br)ccc1C(=O)NS(=O)(=O)c1ccccc1S(N)(=O)=O [Example 15, 4-Bromo-2-methyl-N-(2-sulfamoylphenyl)sulfonyl-benzamide] | 2000
10 | NS(=O)(=O)c1ccccc1S(=O)(=O)NC(=O)c1cccc(C#CC2CCCC2)c1 [Example 66, 3-(Cyclopentylethynyl)-N-(2-sulfamoylphenylsulfonyl)benzamide] | 220
11 | NS(=O)(=O)c1ccccc1S(=O)(=O)NC(=O)c1ccc(Br)c(F)c1 [Example 13, 4-Bromo-3-fluoro-N-(2-sulfamoylphenyl)sulfonyl-benzamide] | 290
12 | Cc1nc(-c2ccccc2)sc1C(=O)NS(=O)(=O)c1ccccc1S(N)(=O)=O [Example 29, 4-Methyl-2-phenyl-N-(2-sulfamoylphenyl)sulfonyl-1,3-thiazole-5-carboxamide] | 290
13 | NS(=O)(=O)c1ccccc1S(=O)(=O)NC(=O)c1ccc(-c2ccccn2)s1 [Example 34, 5-Pyridin-2-yl-N-(2-sulfamoylphenyl)sulfonyl-thiophene-2-carboxamide] | 1600
14 | CC(C)Oc1cc(C(=O)NS(=O)(=O)c2ccccc2S(N)(=O)=O)ccc1C#CC1(O)CCCCCC1 [Example 133, 4-((1-Hydroxycycloheptyl)ethynyl)-3-isopropoxy-N-(2-sulfamoylphenylsulfonyl)-benzamide] | 560
15 | CC(OC(C)(C)C)c1cc2cc(C(=O)NS(=O)(=O)c3ccccc3S(N)(=O)=O)ccc2o1 (stereo not drawn) [Example 121, 2-(1-tert-Butoxyethyl)-N-(2-sulfamoylphenylsulfonyl)benzofuran-5-carboxamide] | 2100
16 | NS(=O)(=O)c1ccccc1S(=O)(=O)NC(=O)c1ccc(C#Cc2ccccc2)nc1 [Example 55, 6-(Phenylethynyl)-N-(2-sulfamoylphenylsulfonyl)nicotinamide] | 120
17 | N#Cc1cc(C(=O)NS(=O)(=O)c2ccccc2S(N)(=O)=O)ccc1-c1cc2ccccc2o1 [Example 80, 4-(Benzofuran-2-yl)-3-cyano-N-(2-sulfamoylphenylsulfonyl)benzamide] | 130
18 | CC(C)(C)C#Cc1cccc(C(=O)NS(=O)(=O)c2ccccc2S(N)(=O)=O)c1 [Example 60, 3-(3,3-Dimethylbut-1-ynyl)-N-(2-sulfamoylphenylsulfonyl)benzamide] | 270
19 | COC(C)(C)c1cc2cc(C(=O)NS(=O)(=O)c3ccccc3S(N)(=O)=O)ccc2o1 [Example 125, 2-(2-Methoxypropan-2-yl)-N-(2-sulfamoylphenylsulfonyl)benzofuran-5-carboxamide] | 12000

Now from value to compound:

Row | IC50 [nM] | Structure (SMILES)
20 | 20 | NS(=O)(=O)c1ccccc1S(=O)(=O)NC(=O)c1ccc2oc(-c3ccccc3)cc2c1 [Example 25, 2-Phenyl-N-(2-sulfamoylphenyl)sulfonyl-benzofuran-5-carboxamide]
21 | 110 | CC(C)(C)c1cc2cc(C(=O)NS(=O)(=O)c3ccccc3S(N)(=O)=O)ccc2o1 [Example 76, 2-tert-Butyl-N-(2-sulfamoylphenylsulfonyl)benzofuran-5-carboxamide]
22 | 14 | CC(C)Oc1cc(C(=O)NS(=O)(=O)c2ccccc2S(N)(=O)=O)cnc1C#CC1CCCC1 [Example 143, 6-(Cyclopentylethynyl)-5-isopropoxy-N-(2-sulfamoylphenylsulfonyl)nicotinamide]
23 | 120 | Cc1nc(-c2ccc(C(F)(F)F)cc2)sc1C(=O)NS(=O)(=O)c1ccccc1S(N)(=O)=O [Example 26, 4-Methyl-N-(2-sulfamoylphenyl)sulfonyl-2-[4-(trifluoromethyl)phenyl]1,3-thiazole-5-carboxamide]
24 | 99 | CC(C)(C)C#Cc1ccc(C(=O)NS(=O)(=O)c2ccccc2S(N)(=O)=O)c2ccccc12 [Example 61, 4-(3,3-Dimethylbut-1-ynyl)-N-(2-sulfamoylphenylsulfonyl)-1-naphthamide]
25 | 46 | Cc1cc(-c2cc3ccccc3o2)ccc1C(=O)NS(=O)(=O)c1ccccc1S(N)(=O)=O [Example 46, 4-(Benzofuran-2-yl)-2-methyl-N-(2-sulfamoylphenylsulfonyl)benzamide]
26 | 17 | COCCOCCOc1cc(C(=O)NS(=O)(=O)c2ccccc2S(N)(=O)=O)ccc1-c1cc2ccccc2o1 [Example 119, 4-(Benzofuran-2-yl)-3-(2-(2-methoxyethoxy)ethoxy)-N-(2-sulfamoylphenylsulfonyl)-benzamide]
27 | 3.2 | COc1cc(C(=O)NS(=O)(=O)c2ccccc2S(N)(=O)=O)ccc1-c1cc2ccccc2o1 [Example 50, 4-(Benzofuran-2-yl)-3-methoxy-N-(2-sulfamoylphenylsulfonyl)benzamide]
28 | 65 | COCCOCCOc1cc(C(=O)NS(=O)(=O)c2ccccc2S(N)(=O)=O)cnc1C#CC1CCCC1 [Example 136, 6-(Cyclopentylethynyl)-5-(2-(2-methoxyethoxy)ethoxy)-N-(2-sulfamoylphenyl-sulfonyl)nicotinamide]
29 | 81 | COCCOCCOc1cc(C(=O)NS(=O)(=O)c2ccccc2S(N)(=O)=O)cnc1-c1cc2ccccc2o1 [Example 135, 6-(Benzofuran-2-yl)-5-(2-(2-methoxyethoxy)ethoxy)-N-(2-sulfamoylphenylsulfonyl)-nicotinamide]
30 | 28 | COc1ccccc1-c1cc2cc(C(=O)NS(=O)(=O)c3ccccc3S(N)(=O)=O)ccc2o1 [Example 120, 2-(2-Methoxyphenyl)-N-(2-sulfamoylphenylsulfonyl)benzofuran-5-carboxamide]
